Experiments:
TLR4 and TLR2 = experiment: IL-6 production in human monocytes stimulated with HMGB1 (TLR4 and TLR2 activating factor); assay type: cell-based; conditions: HMGB 1 5.0 μg/mL, 5 μM GM3 molecular species, 18 hours (FIG. 12)
Description: (§1) Human peripheral blood-derived monocytes (CD14 positive cells) were cultured in DMEM (Low Glucose) containing 0.5% FCS and 25 ng/mL of granulocyte/macrophage colony stimulating factor, and co-stimulated with 0.125 ng/mL of E. coli-derived lipopolysaccharide (LPS, E. coli O111:B4), and 1.25, 2.5, or 5.0 μM of N-mix (neutral glycosphingolipid mixture (Glc-Cer, Lac-Cer, Gb3, and Gb4)) or each of the ganglioside molecular species. 18 hours later, the inflammatory cytokines (IL-6, IL-1β, and TNF-α) secreted in the culture supernatant were quantitated using the ELISA method.
(§2) Then, under the same culture conditions as in Example 5, human monocytes were stimulated using any of 0.125 ng/mL of LPS (i.e., TLR4 activating factor), 5.0 μg/mL of high mobility group box 1 (HMGB 1) (i.e., a TLR4 and TLR2 activating factors), 20 ng/mL of Pam3Csk4 (i.e., a TLR1 and TLR2 activating factors), 1.0 ng/mL of MALP-2 (i.e., TLR2 and TLR6 activating factors), 50 ng/mL of Flagellin (i.e., a TLR5 activating factor), and 250 ng/mL of R-848 (i.e., TLR7 and TLR8 activating factors); and 5 μM of GM3 molecular species. 18 hours later, the inflammatory cytokine IL-6 secreted in the culture supernatant was quantitated using the ELISA method.

TLR1 and TLR2 = experiment: IL-6 production in human monocytes stimulated with Pam3Csk4 (TLR1 and TLR2 activating factor); assay type: cell-based; conditions: Pam3Csk4 20 ng/mL, 5 μM GM3 molecular species, 18 hours (FIG. 12)
Description: as §1, §2

human monocytes = experiment: IL-6 production in human monocytes by LPS with or without GM3C22 or GM3C24 (ELISA); assay type: cell-based; conditions: for production of IL-6 in response to stimulation promoted by the addition of GM3C22 and GM3C24: LPS 0.06 ng/mL + GM3C22 or GM3C24, 18 hours (FIG. 11); for production of IL-6 in response to LPS stimulation: LPS 0.06 ng/mL only, 18 hours (FIG. 11)
Description: as §1
Under the same culture conditions as in Example 5, “GM3C16”, “GM3C18” or “GM3C24:1” which inhibited inflammation was combined to “GM3C22” or “GM3C24” which promoted inflammation. The resultant combination was added to the monocytes and further stimulated with 0.06 ng/mL of LPS (i.e., a TLR4 activating factor). 18 hours later, the inflammatory cytokine IL-6 secreted in the culture supernatant was quantitated using the ELISA method.

TLR4 = experiment: IL-6 production in human monocytes stimulated with LPS (TLR4 activating factor); assay type: cell-based; conditions: LPS 0.125 ng/mL, 5 μM GM3 molecular species, 18 hours (FIG. 12)
Description: as §1, §2

[1] = system: Human peripheral blood-derived monocytes (CD14 positive cells); experiment: LPS-dependent inflammatory cytokine production in human peripheral blood-derived monocytes (ELISA); assay type: cell-based; conditions: LPS 0.125 ng/mL + 1.25, 2.5, or 5.0 μM ganglioside; for production of IL-6 by LPS: 18 hours (FIG. 8); for production of IL-1β by LPS: 18 hours (FIG. 9); for production of TNF-α by LPS: 18 hours (FIG. 10)
Description: as §1

[2] = system: Toll-like receptor (TLR) on human monocytes; experiment: IL-6 production in human monocytes stimulated with other TLR activating factors (Pam3Csk4, MALP-2, Flagellin, R-848); assay type: cell-based; conditions: 5 μM GM3 molecular species, 18 hours (FIG. 12)
Description: as §1, §2

[3] = system: bone marrow-derived macrophages (BMDMs); experiment: Cooperative TNF-α production by LPS and GM3 in bone marrow-derived macrophages (ELISA); assay type: cell-based, mouse; conditions: LPS 0.5 ng/mL, GM3 10 μM, glycosphingolipid 10 μM, 18 hours (FIG. 7)
Description: (§3) Bone marrow-derived cells harvested from the femur and tibia of C57/BL6 mice were induced to differentiate for one week using 20 ng/mL of recombinant macrophage colony-stimulating factor (M-CSF). The obtained bone marrow-derived macrophages (BMDMs) were cultured overnight in DMEM containing 0.5% fetal bovine serum and co-stimulated with LPS (0.5 ng/mL), GM3 (10 μM), and each glycosphingolipid (10 μM). After 18 hours, the TNF-α in the culture supernatant was quantified by the ELISA method.

[4] = system: bone marrow-derived macrophages (BMDMs); experiment: LPS-dependent TNF-α production in bone marrow-derived macrophages (ELISA); assay type: cell-based, mouse; conditions: LPS 0.5 ng/mL + glycosphingolipid 10 μM, 18 hours (FIG. 6)
Description: as §3, with “ng/mL)” for “ng/mL), GM3 (10 μM),”, “μM).” for “μM). After”, “hours later,” for “hours,”, “quantitated” for “quantified”

RAW 264.7 cells [5] = experiment: Cooperative TNF-α production by LPS and GM3 in RAW 264.7 cells (ELISA); assay type: cell-based, mouse; conditions: LPS 0.5 ng/mL; for TNF-α production by LPS and GM3 on addition of 1 μM or less of ganglioside: 1 μM (GM3 ratio; 10:1) or less, GM3 5.0 μM (FIG. 5); for synergistic increases in productions of TNF-α by GM3 and LPS: glycosphingolipid 0.25 to 1.0 μM
Description: RAW 264.7 cells cultured overnight in DMEM containing 0.5% fetal bovine serum were co-stimulated by each glycosphingolipid (0.25 to 1.0 μM), LPS (0.5 ng/mL), and GM3 (5.0 μM). 18 hours later, the TNF-α in the culture supernatant was quantitated by the ELISA method.

RAW 264.7 cells [6] = experiment: LPS-dependent TNF-α production in RAW 264.7 cells (ELISA); assay type: cell-based, mouse; conditions: for TNF-α production by LPS on addition of 1 μM or less of ganglioside: LPS 2.0 ng/mL (FIG. 4); for TNF-α production by LPS: LPS 0.5 ng/mL + each glycosphingolipid 1.0 μM, 0.5% fetal bovine serum, 18 hours (FIG. 3); for inflammation promoted by LPS (LPS-dependent TNF-α production): LPS 2.0 ng/mL + glycosphingolipid 0.25 to 2.0 μM, 18 hours (FIG. 4)
Description: A serum ganglioside mimic resembling the composition of these gangliosides was used to treat a macrophage-like cultured cell line in which the serum in the medium was removed and reduced: RAW 264.7 cells (0.5% fetal bovine-derived serum). Then, an actual influence on TNF-α production by TLR4 ligand (LPS) stimulation was examined.
RAW 264.7 cells cultured overnight in DMEM containing 0.5% fetal bovine serum were co-stimulated by 0.5 ng/mL of lipopolysaccharide (LPS) and ganglioside (serum ganglioside mimic) at a concentration resembling the composition of serum ganglioside. 18 hours later, the TNF-α in the culture supernatant was quantitated by an ELISA method.
RAW 264.7 cells cultured overnight in DMEM containing 0.5% fetal bovine serum were co-stimulated by LPS (0.5 ng/mL) and each glycosphingolipid (1.0 μM). 18 hours later, the TNF-α in the culture supernatant was quantitated by the ELISA method.
RAW 264.7 cells cultured overnight in DMEM containing 0.5% fetal bovine serum were co-stimulated by LPS (2.0 ng/mL) and each glycosphingolipid (0.25 to 2.0 μM). 18 hours later, the TNF-α in the culture supernatant was quantitated by the ELISA method.

Molecule	IL-6 production by HMGB1 (TLR4 and TLR2)	IL-6 production by Pam3Csk4 (TLR1 and TLR2)	production of IL-6 in response to stimulation promoted by the addition of GM3C22 and GM3C24 (human monocytes)	production of IL-6 in response to LPS stimulation (human monocytes)	IL-6 production by LPS (TLR4)	production of IL-6 by LPS [1]	production of IL-1β by LPS [1]	production of TNF-α by LPS [1]	IL-6 production in other TLR activating factors [2]	cooperative TNF-α production by LPS and GM3 in bone marrow-derived macrophages [3]	LPS-dependent TNF-α production in bone marrow-derived macrophages [4]	TNF-α production by LPS and GM3 on addition of 1 μM or less of ganglioside (RAW 264.7 cells [5])	synergistic increases in productions of TNF-α by GM3 and LPS (RAW 264.7 cells [5]; GM3 5.0 μM, 18 hours (FIG. 5))	TNF-α production by LPS on addition of 1 μM or less of ganglioside (RAW 264.7 cells [6])	TNF-α production by LPS (RAW 264.7 cells [6])	inflammation promoted by LPS (LPS-dependent TNF-α production) (RAW 264.7 cells [6])	IC50 (RAW 264.7 cells [5]; TNF-α production, GM3 5.0 μM, 18 hours (FIG. 5), read-out: 50% inhibitory concentration for cooperative activation of LPS and GM3) [nM]
CCCCCCCCCCCCCC=CC(O)C(COC1OC(CO)C(OC2OC(CO)C(O)C(OC3(C(=O)O)CC(O)C(NC(C)=O)C(C(O)C(O)CO)O3)C2O)C(O)C1O)NC(=O)CCCCCCCCCCCCCCC (centres unmarked) [GM3C16]	inhibitory action	inhibitory action was also observed	strongly inhibited	strongly inhibited	inhibitory action	inhibiting	inhibiting	inhibiting									
CCCCCCCCCCCCCC=CC(O)C(COC1OC(CO)C(OC2OC(CO)C(O)C(OC3(C(=O)O)CC(O)C(NC(C)=O)C(C(O)C(O)CO)O3)C2O)C(O)C1O)NC(=O)CCCCCCCCCCCCCCCCC (centres unmarked) [GM3C18]	inhibitory action	inhibitory action was also observed	strongly inhibited	strongly inhibited	inhibitory action	inhibiting	inhibiting	inhibiting									
CCCCCCCCCCCCCC=CC(O)C(COC1OC(CO)C(OC2OC(CO)C(O)C(OC3(C(=O)O)CC(O)C(NC(C)=O)C(C(O)C(O)CO)O3)C2O)C(O)C1O)NC(=O)CCCCCCCCCCCCCCCCCCCCC (centres unmarked) [GM3C22, reference compound]	selectively increased				selectively increased	significantly enhanced	significantly enhanced	significantly enhanced	no increase								
CCCCCCCCCCCCCC=CC(O)C(COC1OC(CO)C(OC2OC(CO)C(O)C(OC3(C(=O)O)CC(O)C(NC(C)=O)C(C(O)C(O)CO)O3)C2O)C(O)C1O)NC(=O)CCCCCCCCCCCCCCCCCCCCCCC (centres unmarked) [GM3C24, reference compound]	selectively increased				selectively increased	significantly enhanced	significantly enhanced	significantly enhanced	no increase								
CCCCCCCCC=CCCCCCCCCCCCCCC(=O)NC(COC1OC(CO)C(OC2OC(CO)C(O)C(OC3(C(=O)O)CC(O)C(NC(C)=O)C(C(O)C(O)CO)O3)C2O)C(O)C1O)C(O)C=CCCCCCCCCCCCCC (centres unmarked) [GM3C24:1]	inhibitory action	inhibitory action was also observed	strongly inhibited	strongly inhibited	inhibitory action	inhibiting	inhibiting	inhibiting									
CCCCCCCCCCCCCC=CC(O)C(COC1OC(CO)C(OC2OC(CO)C(O)C(OC3(C(=O)O)CC(O)C(NC(C)=O)C(C(O)C(O)CO)O3)C2O)C(O)C1O)NC(=O)C(O)CCCCCCCCCCCCCCCCCCCCCC (centres unmarked) [GM3hC24, reference compound]	selectively increased				selectively increased	significantly enhanced	significantly enhanced	significantly enhanced	no increase								
GD1a										strongly inhibited	inhibited	almost completely inhibited	inhibited in a concentration-dependent manner	almost completely inhibited	strongly inhibited	inhibited in a concentration-dependent manner	
GD1b										strongly inhibited	inhibited	almost completely inhibited	inhibited in a concentration-dependent manner	almost completely inhibited	significantly strongly inhibited	inhibited in a concentration-dependent manner	
GT1b										strongly inhibited	inhibited	almost completely inhibited	inhibited in a concentration-dependent manner	almost completely inhibited	significantly strongly inhibited	inhibited in a concentration-dependent manner	250
α-Neu5Ac-(2-3)β-Gal-(1-4)-β-Glc-(1-1)-ceramide [GM3, reference compound]															significantly increased		

— patent publication US10849926B2, “GM3-promoted inflammation inhibitor and inflammatory cytokine production inhibitor” (THE NOGUCHI INSTITUTE, priority 2015, dated 2020)
